How the values were obtained:
Mus musculus [1] = experiment: Antihypoxic effect by the survival time (SVT) in mice at a dose of 30 mg/kg administered intraperitoneally.; format: functional; conditions: route intraperitoneal
Mus musculus [2] = experiment: Spontaneous movement (SMT) in seconds, was measured after oral administration of 30 mg/kg in mice to test for promoting effects on recovery from coma.; format: functional
Mus musculus [3] = experiment: Time of recovery of righting reflux (RRT) in seconds was measured after oral administration of 30 mg/kg in mice for the promotional effect on recovery from coma.; format: functional
Mus musculus [4] = experiment: Antihypoxic effect tested by the ratio of survival time (SVT) of test mice to that of control group, dosed intraperitoneally at 30 mg/kg; format: functional; conditions: route intraperitoneal
Mus musculus [5] = experiment: Antihypoxic effect tested by the ratio of survival time (SVT) of test mice to that of control group, dosed orally 30 mg/kg; format: functional; conditions: route oral
Mus musculus [6] = experiment: Time of recovery of spontaneous movement (SMT) in seconds was measured after administration of 100 mg/kg orally in mice for the promotional effect on recovery from coma.; format: functional
Mus musculus [7] = experiment: Antihypoxic effect by the ratio of survival time (SVT) of test mice to that of control group at a dose of 100 mg/kg administered intraperitoneally.; format: functional
Mus musculus [8] = experiment: Antihypoxic effect by the ratio of survival time (SVT) of test mice to that of control group at a dose of 100 mg/kg administered orally.; format: functional, organism-based; parameters: dose 100 mg/kg
Mus musculus [9] = experiment: Time of recovery of righting reflux (RRT) in seconds was measured after administration of 100 mg/kg orally in mice for the promotional effect on recovery from coma.; format: functional
Mus musculus [10] = experiment: Antihypoxic effect by the ratio of survival time (SVT) of test mice to that of control group at a dose of 30 mg/kg administered subcutaneously.; format: functional; conditions: route subcutaneous

Compound | SMT (Mus musculus [2]) [s] | RRT (Mus musculus [3]) [s] | SVT (Mus musculus [4]) [%] | SVT (Mus musculus [5]) [%] | further results
CCCCCCCCCCC(=O)NC1CCc2c(C)cc(C)c(O)c21 (stereo not given) | – | – | – | – | SVT (Mus musculus [1]): 94.5%
Cc1cc(C)c2c(c1O)C(NCC(=O)N1CCN(c3cccc(Cl)c3)CC1)C(C)(C)C2 (stereo not given) | 95.2 | 116.3 | 146.8 | – | –
Cc1cc(C)c2c(c1O)C(NC(=O)CN1CCCC1C(=O)O)C(C)(C)C2 (stereo not given) | 150.3 | 103.3 | – | 92.3 | –
CCOc1ccccc1N1CCN(CC(=O)NC2c3c(O)c(C)cc(C)c3CC2(C)C)CC1 (stereo not given) | 71.8 | 90.3 | – | 130.4 | –
Cc1cc(C)c2c(c1O)C(NC(=O)CN1CCN(c3cc(Cl)cc(Cl)c3)CC1)C(C)(C)C2 (stereo not given) | 71.1 | 76.1 | – | 106.4 | –
COc1ccc(N2CCN(CC(=O)NC3c4c(O)c(C)cc(C)c4CC3(C)C)CC2)cc1 (stereo not given) | 63.1 | 82.3 | – | 100.6 | –
COc1cccc(N2CCN(CCNC3c4c(O)c(C)cc(C)c4CC3(C)C)CC2)c1 (stereo not given) | 112.1 | 110 | 120.8 | – | –
COc1cccc(N2CCN(CCC(=O)NC3c4c(O)c(C)cc(C)c4CC3(C)C)CC2)c1 (stereo not given) | 92.4 | 98 | – | 91.8 | –
CCC(C)c1cc(C)c2c(c1O)C(NC(=O)CN1CCN(c3cccc(Cl)c3Cl)CC1)CC2 (stereo not given) | 117.4 | 98 | 122.4 | 119.2 | –
COc1cccc(N2CCN(C(=O)CNC3c4c(O)c(C)cc(C)c4CC3(C)C)CC2)c1 (stereo not given) | 111 | 84 | 97.7 | – | –
Cc1cc(C)c2c(c1O)C(NC(=O)Cn1ccnc1)C(C)(C)C2 (stereo not given) | 66.4 | 76.8 | – | 71.8 | –
VITAMIN E | – | – | – | – | SMT (Mus musculus [6]): 83.5 s; SVT (Mus musculus [7]): 96.7%; SVT (Mus musculus [8]): 178%; RRT (Mus musculus [9]): 92.2 s
Cc1cc(C)c2c(c1O)C(NC(=O)CN1CCN(c3cccc(C(F)(F)F)c3)CC1)C(C)(C)C2 (stereo not given) | 83.7 | 89.5 | – | 107.8 | –
COc1cccc(N2CCN(CC(=O)NC3c4c(O)c(C)cc(C)c4CC3c3ccccc3)CC2)c1 (stereo not given) | 80.6 | 82 | – | 78.3 | –
COc1cccc(N2CCN(CC(=O)NC3c4c(c(C)cc(C)c4OC)CC3(C)C)CC2)c1 (stereo not given) | 61.8 | 72.6 | – | 93.4 | –
CCC(C)c1cc(C)c2c(c1O)C(NC(=O)CN1CCN(c3cccc(Cl)c3)CC1)C(C)(C)C2 (stereo not given) | 80.3 | 99.4 | 147.7 | – | –
COc1cccc(N2CCN(CC(=O)NC3c4c(O)ccc(C)c4CC3(C)C)CC2)c1 (stereo not given) | 64.7 | 62.9 | – | 97.2 | –
Cc1cc(C)c2c(c1O)C(NC(=O)CN1CCN(c3ccc(Cl)c(Cl)c3)CC1)C(C)(C)C2 (stereo not given) | 108.2 | 93.2 | – | 100.1 | –
Cc1cc(C)c2c(c1O)C(NC(=O)CN1CCN(c3cccc(Cl)c3)CC1)C(c1ccc(Cl)cc1)C2 (stereo not given) | 99.4 | 98 | – | 81.3 | –
CCC(C)c1cc(C)c2c(c1O)C(NC(=O)CN1CCN(c3cccc(Cl)c3)CC1)CC2 (stereo not given) | 81.9 | 90.6 | 224.8 | 144.5 | –
Cc1cc(C)c(N2CCN(CC(=O)NC3c4c(O)c(C)cc(C)c4CC3(C)C)CC2)c(C)c1 (stereo not given) | 84 | 87.6 | – | 100.3 | –
Cc1cc(C)c2c(c1O)C(NC(=O)CN1CCCC1)C(C)(C)C2 (stereo not given) | 66.4 | 85.8 | 134.2 | – | –
COc1cccc(N2CCN(CC(=O)NC3c4c(O)c(C)cc(C)c4CC3Cc3ccccc3)CC2)c1 (stereo not given) | – | – | – | 123.1 | –
CCCc1cc(C)c2c(c1O)C(NC(=O)CN1CCN(c3cccc(OC)c3)CC1)C(C)(C)C2 (stereo not given) | 107.2 | 114.6 | – | 95 | –
Cc1cc(C)c2c(c1O)C(NC(=O)CN1CCN(c3cccc(Cl)c3)CC1)C(C)(C)C2 (stereo not given) | 128.1 | 88.4 | 456.6 | 147.9 | –
Cc1cc(C)c2c(c1O)C(NC(=O)CN1CCCCC1)C(C)(C)C2 (stereo not given) | 84.2 | 100.7 | 112.7 | – | –
Cc1cc(C)c2c(c1O)C(NC(=O)CN1CCN(c3ccc(F)cc3)CC1)C(C)(C)C2 (stereo not given) | 121.4 | 110.5 | – | 96.2 | –
Cc1cc(C)c2c(c1O)C(NC(=O)CN1CCN(c3cccc(F)c3)CC1)C(C)(C)C2 (stereo not given) | 72.3 | 82.8 | – | 122.7 | –

Compound | SMT (Mus musculus [2]) [s] | RRT (Mus musculus [3]) [s] | SVT (Mus musculus [4]) [%] | SVT (Mus musculus [5]) [%] | further results
Cc1cc(C)c2c(c1O)C(NC(=O)CCN1CCN(c3cccc(Cl)c3)CC1)C(C)(C)C2 (stereo not given) | 74 | 95.4 | 79.5 | – | –
Cc1cc(C)c2c(c1O)C(NC(=O)CN1CCN(c3cccc(Br)c3)CC1)C(C)(C)C2 (stereo not given) | 91 | 81.8 | – | 83.2 | –
Cc1cc(C)c2c(c1O)C(NC(=O)CN1CCCC1=O)C(C)(C)C2 (stereo not given) | 88.8 | 89.2 | 135.3 | – | –
Cc1cc(C)c2c(c1O)C(NC(=O)CN1CCN(c3ccc([N+](=O)[O-])cc3)CC1)C(C)(C)C2 (stereo not given) | 90.6 | 99.5 | – | 107.9 | –
Cc1cc(C)c2c(c1O)C(NC(=O)CN1CCN(c3ccccc3F)CC1)C(C)(C)C2 (stereo not given) | 123.8 | 89 | – | 99.9 | –
Cc1cc(C)c2c(c1O)C(NC(=O)CN1CCN(c3ccccc3Cl)CC1)C(C)(C)C2 (stereo not given) | 77.2 | 86.5 | – | 117.3 | –
CCC(C)c1cc(C)c2c(c1O)C(N)CC2 (stereo not given) | 48.9 | 44.2 | – | 166.5 | SVT (Mus musculus [10]): 276.5%
CCC(C)c1cc(C)c2c(c1O)C(NC(=O)CN1CCN(c3cccc(OC)c3)CC1)CC2 (stereo not given) | 103.5 | 99.1 | 218.5 | 162.3 | –
COc1cccc(N2CCN(CC(=O)NC3c4c(O)c(C)cc(C)c4CC3c3ccc(Cl)cc3)CC2)c1 (stereo not given) | 94.3 | 80.1 | – | 91.7 | –
COc1ccccc1N1CCN(CC(=O)NC2c3c(O)c(C)cc(C)c3CC2(C)C)CC1 (stereo not given) | 117.3 | 97.2 | – | 94.4 | –
Cc1ccc(Cl)cc1N1CCN(CC(=O)NC2c3c(O)c(C)cc(C)c3CC2(C)C)CC1 (stereo not given) | 74 | 91.7 | – | 103.2 | –
Cc1cccc(N2CCN(CC(=O)NC3CCc4c(C)cc(C)c(O)c43)CC2)c1C (stereo not given) | – | – | 134.3 | – | –
Cc1ccc(N2CCN(CC(=O)NC3c4c(O)c(C)cc(C)c4CC3(C)C)CC2)cc1Cl (stereo not given) | 117.7 | 103.9 | – | 90.5 | –
Cc1cc(C)c2c(c1O)C(NC(=O)CCl)CC2 (stereo not given) | – | – | – | – | SVT (Mus musculus [1]): 116.4%
Cc1cc(C)c2c(c1O)C(NC(=O)CN1CCOCC1)C(C)(C)C2 (stereo not given) | 92.2 | 106.9 | 104.3 | – | –
Cc1ccccc1C1Cc2c(C)cc(C)c(O)c2C1NC(=O)CN1CCN(c2cccc(Cl)c2)CC1 (stereo not given) | 66 | 75.1 | – | 123.7 | –
Cc1cc(C)c2c(c1O)C(N)C(c1ccccc1)C2 (stereo not given) | 28.9 | 34.3 | 185.7 | 114.1 | –
Cc1cc(C)c2c(c1O)C(NC(=O)CN1CCN(c3cccc(Cl)c3Cl)CC1)C(C)(C)C2 (stereo not given) | 126.6 | 99.2 | – | 94.6 | –
Cc1ccc(C(=O)NC2CCc3c(C)cc(C)c(O)c32)cc1 (stereo not given) | – | – | 68.8 | – | –
COc1cccc(N2CCN(CC(=O)NC3CCc4c(C)cc(C)c(O)c43)CC2)c1 (stereo not given) | 54.7 | 64.2 | – | 77.2 | –
Cc1cc(C)c2c(c1O)C(NC(=O)CN1CCN(c3cc(Cl)ccc3Cl)CC1)C(C)(C)C2 (stereo not given) | 69.4 | 73.6 | – | 100 | –
CCC(C)c1cc(C)c2c(c1O)C(NC(=O)CN1CCN(c3cccc(C)c3)CC1)CC2 (stereo not given) | 125.1 | 91.9 | 172.2 | 110.5 | –
CCC(C)c1cc(C)c2c(c1O)C(NC(=O)CN1CCN(c3cc(Cl)cc(Cl)c3)CC1)CC2 (stereo not given) | 100.6 | 114 | 139.4 | 113.2 | –
Cc1cc(C)c2c(c1O)C(NCCN1CCN(c3cccc(Cl)c3)CC1)C(C)(C)C2 (stereo not given) | 59.9 | 64.8 | 141.3 | – | –
Cc1cc(C)c2c(c1O)C(NC(=O)CN1CCSCC1)C(C)(C)C2 (stereo not given) | 119.9 | 110.8 | 100.8 | – | –
CCC(C)c1cc(C)c2c(c1O)C(NC(=O)CN1CCN(c3ccccc3)CC1)CC2 (stereo not given) | 78.2 | 80.3 | 89.3 | 85.9 | –
COc1ccc(N2CCN(CC(=O)NC3c4c(O)c(C)cc(C)c4CC3(C)C)CC2)cc1OC (stereo not given) | 81 | 59.5 | – | 85.7 | –

Source: ChEMBL document CHEMBL1125278, “Novel cerebroprotective agents with central nervous system stimulating activity. 2. Synthesis and pharmacology of the 1-(acylamino)-7-hydroxyindan derivatives” (1991)
